Results on one substance are retold here after US20180179574A1, “SYSTEMS AND METHODS FOR CHARACTERIZATION OF […]” (The University of Chicago, priority 2015, published 2018).

One assay has as its target T1, Leukocyte-LpL (Homo sapiens, UniProt P06858).
T1 construct: analyze the activity of endogenous cell-associated LpL from a blood sample; host or cells: primary leukocytes (buffy coat) from fresh whole blood
T1 sequence (P06858 28-475): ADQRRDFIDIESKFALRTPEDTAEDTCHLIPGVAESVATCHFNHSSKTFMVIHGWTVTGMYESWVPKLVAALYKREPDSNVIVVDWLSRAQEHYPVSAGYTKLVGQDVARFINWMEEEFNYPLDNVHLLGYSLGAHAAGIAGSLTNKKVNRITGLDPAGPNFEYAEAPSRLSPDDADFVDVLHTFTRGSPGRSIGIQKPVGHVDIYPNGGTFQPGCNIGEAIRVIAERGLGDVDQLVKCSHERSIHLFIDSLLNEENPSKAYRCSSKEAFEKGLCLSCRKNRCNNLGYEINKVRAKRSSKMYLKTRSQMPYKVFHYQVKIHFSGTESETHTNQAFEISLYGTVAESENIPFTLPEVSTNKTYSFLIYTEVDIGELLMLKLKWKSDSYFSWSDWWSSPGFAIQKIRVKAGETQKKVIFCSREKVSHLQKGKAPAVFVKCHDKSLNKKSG
In words: Leukocyte LpL hydrolytic potential / lipase response to stimulation assay (fluorogenic ENZCHEK TG substrate). Format: cell-based. The note with it: leukocytes washed with heparin removing surface LpL. The procedure: FIG. 6. Leukocyte-LpL activity is detectible and responsive to C-II51-79 and AV199-232 peptide stimulation. Leukocytes (buffy coat) was collected by centrifugation of fresh whole blood from healthy donors (Zen Bio Inc.), rinsed and then incubated with LpL reaction mix (A, B). Leukocytes were also incubated with […] CII51-79 and/or AV199-232 (A). […] Increasing fluorescent plate reader gain can increase sensitivity to low femto molar range (C).
Experiments were conducted during development of embodiments of the present invention using an in vitro assay that utilizes bovine milk LpL (SIGMA) diluted to ˜120 ng/ml in Tris-HCl, 0.15M NaCl (TBS), 1%(w/v) BSA, 0.015%(w/v) Zwittergent 3-14, pH 7.8+1 μM to 25 μM ENZCHEK substrate, prepared in black polypropylene microplates. […] Detection of product is performed with a fluorescent plate reader using excitation/emission wavelengths of 482 nm and 515 nm. The assay is sensitive to fmol/L of LpL (130% gain on reader) (FIG. 6C) and product accumulation increases linearly with increasing enzyme concentrations (FIG. 1A). The absolute product concentration is proportional to the relative fluorescence units (RFU) and can be calculated using BODIPY-C12 fatty acid (D3823, Life Technologies Inc.) as a standard and allows the determination of reaction rates (i.e. ng/ml/min) and Michaelis-Menten kinetic parameters. […]

The test system of the next assay is HepG2. In words: Lipase assay with live cells (HepG2), fluorogenic TG substrate. Format: cell-based. The note with it: HepG2 cells washed with heparin. The procedure:
FIG. 2. The lipase assay is non-toxic and detects enzyme activity with live cells. The removal of the reaction mix from the cells (HepG2) stops substrate hydrolysis but is reinitiated once added back to the same cells (A).
Experiments were conducted during development of embodiments of the present invention using an in vitro assay that utilizes bovine milk LpL (SIGMA) diluted to ˜120 ng/ml in Tris-HCl, 0.15M NaCl (TBS), 1%(w/v) BSA, 0.015%(w/v) Zwittergent 3-14, pH 7.8+1 μM to 25 μM ENZCHEK substrate, prepared in black polypropylene microplates. In some embodiments, the lipase reaction is performed at room temperature or 37° C. for 10 min to 60 min. Detection of product is performed with a fluorescent plate reader using excitation/emission wavelengths of 482 nm and 515 nm. The assay is sensitive to fmol/L of LpL (130% gain on reader) (FIG. 6C) and product accumulation increases linearly with increasing enzyme concentrations (FIG. 1A). The absolute product concentration is proportional to the relative fluorescence units (RFU) and can be calculated using BODIPY-C12 fatty acid (D3823, Life Technologies Inc.) as a standard and allows the determination of reaction rates (i.e. ng/ml/min) and Michaelis-Menten kinetic parameters. […] Furthermore, the mild nature of the assay formulation allows LpL activity to be determined with live cells in cell culture or isolated cells (FIG. 2).

heparin: the “Leukocyte substrate hydrolysis after washing cells with heparin” value at Leukocyte-LpL is recorded as “substrate hydrolysis was lost”. In the assay on HepG2, the “Substrate hydrolysis by live cells after washing cells with heparin” value is “inhibits substrate hydrolysis”.
